Experimental data: ChEMBL document CHEMBL5325412, “Privileged heterocycles for DNA-encoded library design and hit-to-lead optimization” (Eur J Med Chem, 2023)
In brackets after ≈: the same amount, converted by molar mass. Blank lines part the entries; values can stand above or below the molecule they belong to.

How the values were obtained:
[1] = Inhibition of MAPK p68 (unknown origin); design: species or system Homo sapiens
[2] = Inhibition of Hepatitis C virus genotype 1a NS4B; design: species or system Hepacivirus hominis
[3] = molecular target: Mitogen-activated protein kinase 10 (Homo sapiens, UniProt P53779); assay: Binding affinity to JNK3 (unknown origin) assessed as inhibition constant
CREB-binding protein = CREB-binding protein (Homo sapiens, UniProt Q92793); assay: Inhibition of N-terminal His-tagged CREBBP (unknown origin) expressed in Escherichia coli BL21 (DE3)
Quadruplex DNA [4] = assay: Binding affinity to c-MYC G4 quadruplex DNA (unknown origin) assessed as dissociation constant by fluorescence titration based analysis; type: nucleic-acid assay
[5] = Binding affinity to bacterial beta-lactamase OXA-48 expressed in Escherichia coli BL21 (DE3) using nitrocefin as substrate pre-incubated for 5 mins and measured for 20 mins by spectrometric analysis; design: species or system Bacteria
Quadruplex DNA [6] = assay: Binding affinity to c-MYC G4- quadruplex DNA Pu22 (unknown origin) assessed as inhibition constant by SPR analysis; type: nucleic-acid assay
[7] = molecular target: T1, 2',5'-phosphodiesterase 12 (Homo sapiens, UniProt Q6L8Q7); assay: Binding affinity to PDE12 (unknown origin) (17 to 609 residues) assessed as inhibition constant by AMP-glo reagent based assay
T1 sequence (Q6L8Q7 whole entry): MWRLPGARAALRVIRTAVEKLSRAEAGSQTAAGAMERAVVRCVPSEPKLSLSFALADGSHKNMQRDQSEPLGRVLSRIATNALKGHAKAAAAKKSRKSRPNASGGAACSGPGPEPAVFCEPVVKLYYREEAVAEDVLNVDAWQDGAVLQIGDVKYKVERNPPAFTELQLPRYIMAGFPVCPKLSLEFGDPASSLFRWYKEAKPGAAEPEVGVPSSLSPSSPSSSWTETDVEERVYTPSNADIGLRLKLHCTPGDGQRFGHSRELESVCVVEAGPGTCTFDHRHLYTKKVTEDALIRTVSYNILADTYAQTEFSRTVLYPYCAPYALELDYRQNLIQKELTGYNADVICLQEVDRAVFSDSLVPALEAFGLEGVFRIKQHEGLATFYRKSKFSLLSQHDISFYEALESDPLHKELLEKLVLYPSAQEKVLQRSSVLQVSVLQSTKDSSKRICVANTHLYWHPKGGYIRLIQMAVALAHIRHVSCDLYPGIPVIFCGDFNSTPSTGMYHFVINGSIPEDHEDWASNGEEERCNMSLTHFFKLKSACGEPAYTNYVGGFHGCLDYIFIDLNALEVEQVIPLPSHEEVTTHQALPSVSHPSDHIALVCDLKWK

Carbonic anhydrase 9 = Carbonic anhydrase 9 (Homo sapiens, UniProt Q16790); assay: Inhibition of human recombinant carbonic anhydrase IX
[8] = molecular target: T2, Poly [ADP-ribose] polymerase tankyrase-1 (Homo sapiens, UniProt O95271); assay: Binding affinity to TNKS1 (unknown origin) assessed as dissociation constant
T2 sequence (O95271 whole entry): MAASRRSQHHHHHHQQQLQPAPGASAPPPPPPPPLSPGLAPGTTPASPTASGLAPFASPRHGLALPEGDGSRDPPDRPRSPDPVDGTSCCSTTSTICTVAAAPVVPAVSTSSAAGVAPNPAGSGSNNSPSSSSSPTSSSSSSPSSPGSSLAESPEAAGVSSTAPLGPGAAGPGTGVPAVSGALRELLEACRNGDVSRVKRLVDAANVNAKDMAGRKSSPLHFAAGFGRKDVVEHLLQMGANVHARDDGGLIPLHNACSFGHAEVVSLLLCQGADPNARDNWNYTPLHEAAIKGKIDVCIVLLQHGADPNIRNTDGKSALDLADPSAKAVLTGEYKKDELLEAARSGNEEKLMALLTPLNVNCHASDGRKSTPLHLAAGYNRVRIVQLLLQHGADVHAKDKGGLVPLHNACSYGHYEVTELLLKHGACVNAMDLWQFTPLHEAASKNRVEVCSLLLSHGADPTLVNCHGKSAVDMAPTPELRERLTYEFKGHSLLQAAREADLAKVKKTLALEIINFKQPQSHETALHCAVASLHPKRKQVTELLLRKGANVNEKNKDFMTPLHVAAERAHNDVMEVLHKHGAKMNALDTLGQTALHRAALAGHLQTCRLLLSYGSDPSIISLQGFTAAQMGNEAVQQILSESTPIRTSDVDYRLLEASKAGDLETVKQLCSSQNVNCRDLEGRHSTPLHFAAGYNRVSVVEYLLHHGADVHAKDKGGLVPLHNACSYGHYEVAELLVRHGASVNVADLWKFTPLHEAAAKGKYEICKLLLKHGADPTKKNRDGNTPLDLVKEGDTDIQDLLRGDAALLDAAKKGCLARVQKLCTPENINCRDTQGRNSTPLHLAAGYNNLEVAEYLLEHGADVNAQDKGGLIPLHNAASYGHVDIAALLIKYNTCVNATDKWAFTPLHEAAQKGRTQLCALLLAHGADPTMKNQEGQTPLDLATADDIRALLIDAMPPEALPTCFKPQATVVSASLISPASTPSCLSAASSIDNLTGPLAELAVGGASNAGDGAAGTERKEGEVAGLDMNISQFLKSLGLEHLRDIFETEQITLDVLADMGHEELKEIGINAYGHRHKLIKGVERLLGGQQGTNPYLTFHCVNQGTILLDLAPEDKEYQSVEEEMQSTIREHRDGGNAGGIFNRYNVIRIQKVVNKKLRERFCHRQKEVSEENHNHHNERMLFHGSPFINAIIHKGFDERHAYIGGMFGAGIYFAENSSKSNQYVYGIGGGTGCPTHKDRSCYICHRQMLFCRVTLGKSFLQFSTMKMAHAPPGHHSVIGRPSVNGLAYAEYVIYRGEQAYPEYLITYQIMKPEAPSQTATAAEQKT

Autotaxin = Autotaxin (Homo sapiens, UniProt Q13822); assay: Inhibition of ATX (unknown origin)
Prothrombin = Prothrombin (Homo sapiens, UniProt P00734); assay: Binding affinity to thrombin (unknown origin) assessed as inhibition constant
[9] = molecular target: T3, Proteinase-activated receptor 2 (Homo sapiens, UniProt P55085); assay: Antagonist activity at PAR2 (unknown origin) expressed in human 1321N1 cells; type: cell-based
T3 sequence (P55085 whole entry): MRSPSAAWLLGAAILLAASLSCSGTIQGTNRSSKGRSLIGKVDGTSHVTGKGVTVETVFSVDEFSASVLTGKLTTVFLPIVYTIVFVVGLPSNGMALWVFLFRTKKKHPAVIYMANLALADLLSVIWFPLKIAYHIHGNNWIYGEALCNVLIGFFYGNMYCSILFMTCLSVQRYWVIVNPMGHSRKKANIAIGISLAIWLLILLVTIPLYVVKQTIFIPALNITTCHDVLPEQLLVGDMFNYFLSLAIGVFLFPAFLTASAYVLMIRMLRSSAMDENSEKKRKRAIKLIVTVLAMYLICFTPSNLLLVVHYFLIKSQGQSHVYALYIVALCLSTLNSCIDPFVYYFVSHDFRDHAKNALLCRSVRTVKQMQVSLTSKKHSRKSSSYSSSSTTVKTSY

[10] = molecular target: Mitogen-activated protein kinase 8 (Homo sapiens, UniProt P45983); assay: Binding affinity to JNK1 (unknown origin) assessed as dissociation constant
Albumin = Albumin (Homo sapiens, UniProt P02768); assay: Binding affinity to human serum albumin by fluorescence polarization assay
[11] = Solubility of the compound; type: physicochemical
[12] = Binding affinity to Peptoid-inspired conformationally constrained oligomer (unknown origin) assessed as dissociation constant
Bacillus subtilis = assay: Antibacterial activity against Bacillus subtilis ATCC 23857 assessed as bacterial growth inhibition incubated for 16 hrs by broth dilution assay; type: functional
Escherichia coli = assay: Antibacterial activity against Escherichia coli ATCC 25922 assessed as bacterial growth inhibition measured after 16 hrs by broth dilution assay; type: functional

Sequence of Mitogen-activated protein kinase 10 (P53779 whole entry): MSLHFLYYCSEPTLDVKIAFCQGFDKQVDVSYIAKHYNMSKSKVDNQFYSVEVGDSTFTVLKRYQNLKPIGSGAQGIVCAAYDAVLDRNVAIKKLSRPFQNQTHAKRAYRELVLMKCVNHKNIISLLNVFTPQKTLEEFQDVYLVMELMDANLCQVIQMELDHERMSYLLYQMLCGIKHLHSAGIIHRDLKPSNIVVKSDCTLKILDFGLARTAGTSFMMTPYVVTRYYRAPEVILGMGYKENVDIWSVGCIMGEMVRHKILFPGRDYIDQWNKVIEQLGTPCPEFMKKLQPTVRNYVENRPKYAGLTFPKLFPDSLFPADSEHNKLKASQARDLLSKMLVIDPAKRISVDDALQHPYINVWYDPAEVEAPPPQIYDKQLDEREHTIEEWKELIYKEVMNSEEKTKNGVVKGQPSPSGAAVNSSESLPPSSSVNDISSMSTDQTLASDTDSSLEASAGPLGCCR
Sequence of Albumin (P02768 whole entry): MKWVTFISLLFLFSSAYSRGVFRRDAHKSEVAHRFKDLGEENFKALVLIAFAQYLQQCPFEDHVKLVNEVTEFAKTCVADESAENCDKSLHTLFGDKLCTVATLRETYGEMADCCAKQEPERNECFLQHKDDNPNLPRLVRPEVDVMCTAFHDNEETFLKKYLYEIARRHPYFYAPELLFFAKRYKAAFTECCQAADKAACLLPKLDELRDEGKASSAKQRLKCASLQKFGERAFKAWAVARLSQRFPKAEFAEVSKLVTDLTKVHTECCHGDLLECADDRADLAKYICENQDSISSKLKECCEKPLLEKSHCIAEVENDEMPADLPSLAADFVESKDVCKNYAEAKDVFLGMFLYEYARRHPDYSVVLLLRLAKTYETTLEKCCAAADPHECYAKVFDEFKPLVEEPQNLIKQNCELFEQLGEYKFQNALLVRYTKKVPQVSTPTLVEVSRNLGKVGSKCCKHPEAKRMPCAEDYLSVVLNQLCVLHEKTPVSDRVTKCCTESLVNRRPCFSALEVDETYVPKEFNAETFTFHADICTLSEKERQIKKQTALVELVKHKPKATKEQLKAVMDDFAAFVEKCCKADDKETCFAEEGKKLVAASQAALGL
Sequence of CREB-binding protein (Q92793 whole entry): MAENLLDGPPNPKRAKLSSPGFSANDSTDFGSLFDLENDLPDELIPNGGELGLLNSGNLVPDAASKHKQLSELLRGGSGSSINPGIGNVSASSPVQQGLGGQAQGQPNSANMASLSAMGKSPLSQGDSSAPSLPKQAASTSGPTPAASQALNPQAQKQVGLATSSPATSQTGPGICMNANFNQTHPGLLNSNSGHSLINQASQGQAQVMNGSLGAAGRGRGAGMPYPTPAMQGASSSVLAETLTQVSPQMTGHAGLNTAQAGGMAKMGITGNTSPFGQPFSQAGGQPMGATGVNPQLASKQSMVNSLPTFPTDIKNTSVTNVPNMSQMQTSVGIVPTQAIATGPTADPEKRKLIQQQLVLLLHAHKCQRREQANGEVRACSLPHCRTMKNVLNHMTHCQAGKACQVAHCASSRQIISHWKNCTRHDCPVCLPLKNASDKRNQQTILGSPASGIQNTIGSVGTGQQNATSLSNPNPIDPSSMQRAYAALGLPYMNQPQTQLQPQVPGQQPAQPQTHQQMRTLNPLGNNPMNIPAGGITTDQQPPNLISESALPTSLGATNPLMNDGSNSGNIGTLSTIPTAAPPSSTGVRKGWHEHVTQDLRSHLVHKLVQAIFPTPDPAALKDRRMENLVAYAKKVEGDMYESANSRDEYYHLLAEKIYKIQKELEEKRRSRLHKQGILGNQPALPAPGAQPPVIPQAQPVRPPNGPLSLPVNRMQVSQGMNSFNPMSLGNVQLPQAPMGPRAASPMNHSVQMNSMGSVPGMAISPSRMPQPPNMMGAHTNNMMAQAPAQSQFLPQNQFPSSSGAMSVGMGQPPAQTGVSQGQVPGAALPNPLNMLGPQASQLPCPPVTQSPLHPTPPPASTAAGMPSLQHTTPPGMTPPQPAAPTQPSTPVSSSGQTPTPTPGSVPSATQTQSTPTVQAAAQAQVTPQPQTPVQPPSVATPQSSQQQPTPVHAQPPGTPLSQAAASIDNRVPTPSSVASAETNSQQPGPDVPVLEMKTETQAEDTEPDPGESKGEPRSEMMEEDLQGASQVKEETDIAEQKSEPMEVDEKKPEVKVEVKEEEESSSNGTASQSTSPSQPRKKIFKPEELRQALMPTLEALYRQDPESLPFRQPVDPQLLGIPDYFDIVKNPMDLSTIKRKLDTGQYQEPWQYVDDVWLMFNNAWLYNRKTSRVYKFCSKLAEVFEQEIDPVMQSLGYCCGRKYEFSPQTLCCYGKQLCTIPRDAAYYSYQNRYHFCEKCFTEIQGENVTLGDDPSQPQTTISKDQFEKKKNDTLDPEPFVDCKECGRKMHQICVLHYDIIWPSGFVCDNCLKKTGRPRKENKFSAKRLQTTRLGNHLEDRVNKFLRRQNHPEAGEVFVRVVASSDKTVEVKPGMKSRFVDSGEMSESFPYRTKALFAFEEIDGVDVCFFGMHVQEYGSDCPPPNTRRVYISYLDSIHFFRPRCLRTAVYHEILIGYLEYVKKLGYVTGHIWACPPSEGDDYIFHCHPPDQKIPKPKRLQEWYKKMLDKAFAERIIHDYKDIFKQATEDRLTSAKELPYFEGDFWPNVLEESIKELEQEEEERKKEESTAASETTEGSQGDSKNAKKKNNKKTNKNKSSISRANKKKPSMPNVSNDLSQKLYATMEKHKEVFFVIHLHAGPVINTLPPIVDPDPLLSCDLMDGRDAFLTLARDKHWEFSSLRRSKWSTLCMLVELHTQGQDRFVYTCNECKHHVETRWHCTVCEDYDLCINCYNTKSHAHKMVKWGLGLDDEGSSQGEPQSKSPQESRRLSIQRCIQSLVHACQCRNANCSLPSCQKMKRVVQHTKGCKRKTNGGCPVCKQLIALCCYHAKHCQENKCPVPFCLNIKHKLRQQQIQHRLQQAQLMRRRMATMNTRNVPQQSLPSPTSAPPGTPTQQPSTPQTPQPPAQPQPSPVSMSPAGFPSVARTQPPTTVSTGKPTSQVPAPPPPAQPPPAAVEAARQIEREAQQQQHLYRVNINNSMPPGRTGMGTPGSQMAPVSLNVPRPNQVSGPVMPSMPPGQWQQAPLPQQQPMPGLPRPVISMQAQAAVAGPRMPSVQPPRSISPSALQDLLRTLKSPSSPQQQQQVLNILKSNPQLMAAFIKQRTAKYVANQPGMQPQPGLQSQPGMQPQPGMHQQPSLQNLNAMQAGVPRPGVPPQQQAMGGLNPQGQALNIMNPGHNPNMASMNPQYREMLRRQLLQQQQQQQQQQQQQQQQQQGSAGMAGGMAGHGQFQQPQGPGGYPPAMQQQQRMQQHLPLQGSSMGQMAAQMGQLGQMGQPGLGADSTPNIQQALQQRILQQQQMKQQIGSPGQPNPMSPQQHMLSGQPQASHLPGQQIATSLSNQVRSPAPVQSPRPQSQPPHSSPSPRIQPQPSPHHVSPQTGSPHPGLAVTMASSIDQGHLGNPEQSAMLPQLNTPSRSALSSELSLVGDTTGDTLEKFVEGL
Sequence of Mitogen-activated protein kinase 8 (P45983 whole entry): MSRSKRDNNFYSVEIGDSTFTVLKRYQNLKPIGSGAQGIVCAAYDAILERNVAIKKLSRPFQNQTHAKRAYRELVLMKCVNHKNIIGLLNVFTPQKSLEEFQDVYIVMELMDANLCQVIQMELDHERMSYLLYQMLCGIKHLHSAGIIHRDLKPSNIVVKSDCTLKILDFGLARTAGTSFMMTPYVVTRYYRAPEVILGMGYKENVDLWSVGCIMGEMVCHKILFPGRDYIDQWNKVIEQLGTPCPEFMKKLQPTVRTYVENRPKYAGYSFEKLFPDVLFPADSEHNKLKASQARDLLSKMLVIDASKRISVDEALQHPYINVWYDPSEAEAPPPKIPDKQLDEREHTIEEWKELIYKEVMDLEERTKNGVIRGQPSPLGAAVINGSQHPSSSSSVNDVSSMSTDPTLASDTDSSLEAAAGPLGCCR

SMILES: O=C(c1ccc2[nH]ccc2c1)N1CCC2(CCCN(c3ncc(-c4ccccc4)c(-c4ccc(Cl)cc4)n3)C2)CC1
IC50 [2]: 42.1 nM

SMILES: CCn1c(-c2ccccc2-c2ccc(C)cc2C)nc2cc(C(=O)NC)ccc21
Ki [3]: 1.2 nM

SMILES: CCOc1ccccc1N1CCN(c2ncnc(N3CCC(C(=O)O)CC3)n2)CC1
Ki [5]: 530 nM

SMILES: Cc1cnccc1N1CCN(c2nccc3c2nc(-c2c[nH]c4ccncc24)n3C)CC1
Ki (Quadruplex DNA [6]): 328 nM

SMILES: Cn1c(-c2c[nH]c3cc(C#N)ccc23)nc2ccc(C(=O)N3CCOC(c4ccccc4)C3CO)cc21 (stereo unspecified)
Ki [7]: 17.5 nM

SMILES: CCOc1ccccc1N1CCN(c2ncnc(N3CCC(S(=O)(=O)O)CC3)n2)CC1
Ki [5]: 260 nM

SMILES: CC(C1CCCCC1)n1c(-c2cc3c(cc2Br)OCO3)nc2cc(C(=O)Nc3ccc(C#N)cc3)ccc21 (stereo unspecified)
IC50 [9]: 23 nM

SMILES: NC(=O)c1coc(CN(Cc2ccc3c(c2)OCO3)C(=O)c2coc(CN(Cc3ccc4c(c3)OCO4)C(=O)c3ncc(CCl)o3)n2)n1
Kd [12]: 30 nM

SMILES: O=C(O)c1cn(C2CC2)c2nc(N3CCNCC3)c(F)cc2c1=O
MIC (Bacillus subtilis): 0.063 µg/mL (≈ 0.19 µM) | MIC (Escherichia coli): 0.016 µg/mL (≈ 0.0481 µM)

Other lines, results leading:

IC50 [1]: 2100 nM
SMILES: COc1ccc(Nc2nc(NCCc3ccccc3F)nc(Nc3ccc4ncccc4c3)n2)cc1OC

IC50 [2]: 45.8 nM
SMILES: O=C(c1ccccc1)N1CCC2(CCCN(c3ncc(-c4ccccc4)c(-c4ccc(Cl)cc4)n3)C2)CC1

IC50 (CREB-binding protein): 17000 nM
SMILES: C[C@@H]1CC(=O)Cc2cccc(C(=O)NCCNC(=O)CSC(=S)c3ccccc3)c2N1

Kd (Quadruplex DNA [4]): 1050 nM
SMILES: CNC(=O)CN(Cc1ccc(OCC(=O)NCc2nc3ccccc3c(=O)[nH]2)c(Cl)c1)Cc1cccn1C

IC50 (Carbonic anhydrase 9): 20.1 nM
SMILES: CNC(=O)[C@@H]1[C@@H](c2ccc(-c3ccc(S(N)(=O)=O)cc3)cc2)CN1Cc1ccc(O)c2ncccc12

Kd [8]: 15 nM
SMILES: Cc1cn(CC(=O)N[C@@H](CCCCn2cc(-c3ccncc3F)nn2)C(N)=O)c(=O)[nH]c1=O

IC50 (Autotaxin): 2800 nM
SMILES: NC(=O)CN1CN(c2ccccc2)C2(CCN(C(=O)CCc3ccc(Cl)cc3Cl)CC2)C1=O

Ki (Prothrombin): 1 nM
SMILES: CNC(=O)[C@@H]1CN(C(=O)[C@@H](Cc2ccccc2CNC(=N)N)NC(=O)N(C)C2CCOc3ccccc32)C[C@H]1c1ccc(OC)cc1 (stereo partly specified)

Kd [10]: 1000 nM
SMILES: O=C(/C=C/C(=O)c1ccc(F)c(F)c1)NCCOCCOCCNC(=O)c1cccnc1Oc1ccccc1

Ki (Albumin): 49.7 nM | solubility [11]: 54 µg/mL (≈ 87.8 µM)
SMILES: NCCOCCOCCNC(=O)c1cccc(NC(=O)OC2CCN(C(=O)c3ccc(-c4nc5ccccc5[nH]4)cc3)CC2)c1
